For test [1], the system named is Botrytis cinerea. In words: Curative antifungal activity against Botryotinia fuckeliana inoculated in strawberry fruit assessed as disease control efficacy at 1 ug AI/ml applied 24 hr post-inoculation relative to control. It counts as functional.
Test [2] deals with Botrytis cinerea. The test can be described thus: Curative antifungal activity against Botryotinia fuckeliana inoculated in strawberry fruit assessed as disease severity measuring lesion diameter at 100 ug AI/ml applied 24 hr post-inoculation. It counts as functional.
Test [3] has as its system Botrytis cinerea. The test can be described thus: Curative antifungal activity against Botryotinia fuckeliana inoculated in strawberry fruit assessed as disease control efficacy at 50 ug AI/ml applied 48 hr post-inoculation relative to control. Format: functional.
In test [4] the test system is Botrytis cinerea. The test can be described thus: Curative antifungal activity against Botryotinia fuckeliana inoculated in strawberry fruit assessed as disease control efficacy at 10 ug AI/ml applied 48 hr post-inoculation relative to control. It counts as functional.
The test system of test [5] is Botrytis cinerea. In words: Curative antifungal activity against Botryotinia fuckeliana inoculated in strawberry fruit assessed as disease control efficacy at 1 ug AI/ml applied 48 hr post-inoculation relative to control. It counts as functional.
Test [6] deals with Botrytis cinerea. The test can be described thus: Antifungal activity against Botryotinia fuckeliana grown on PDA medium assessed as inhibition of mycelial growth at 10 ug/ml after 10 days. Format: functional, organism-based.
For test [7], the system named is Botrytis cinerea. The test can be described thus: Curative antifungal activity against Botryotinia fuckeliana inoculated in strawberry fruit assessed as disease control efficacy at 100 ug AI/ml applied 96 hr post-inoculation relative to control. It counts as functional.
Test [8] deals with Botrytis cinerea. In words: Curative antifungal activity against Botryotinia fuckeliana inoculated in strawberry fruit assessed as disease control efficacy at 10 ug AI/ml applied 96 hr post-inoculation relative to control. It counts as functional.
In test [9] the test system is Botrytis cinerea. In words: Antifungal activity against Botryotinia fuckeliana grown on succinate medium assessed as inhibition of spore germination at 5 ug/ml after 10 days. Format: functional, organism-based.
In test [10] the test system is Botrytis cinerea. In words: Antifungal activity against Botryotinia fuckeliana grown on YBA agar assessed as inhibition of spore germination at 1 ug/ml after 10 days. It counts as functional, organism-based.
The test system of test [11] is Botrytis cinerea. In words: Antifungal activity against Botryotinia fuckeliana assessed as inhibition of spore germination at 0.001 to 10 ug/ml after 10 days. It counts as functional, organism-based.
The test system of test [12] is Botrytis cinerea. The test can be described thus: Protective antifungal activity against Botryotinia fuckeliana inoculated in fungicide-applied strawberry fruit assessed as disease control efficacy at 1 ug AI/ml applied 96 hr prior-inoculation relative to control. Format: functional.
Test [13] deals with Botrytis cinerea. The test can be described thus: Protective antifungal activity against Botryotinia fuckeliana inoculated in fungicide-applied strawberry fruit assessed as disease severity measuring lesion diameter at 50 ug AI/ml applied 96 hr prior-inoculation. Format: functional.
Test [14] has as its system Botrytis cinerea. The test can be described thus: Curative antifungal activity against Botryotinia fuckeliana inoculated in strawberry fruit assessed as disease severity measuring lesion diameter at 100 ug AI/ml applied 96 hr post-inoculation. Format: functional.
The subject of test [15] is Botrytis cinerea. In words: Curative antifungal activity against Botryotinia fuckeliana inoculated in strawberry fruit assessed as disease severity measuring lesion diameter at 50 ug AI/ml applied 96 hr post-inoculation. It counts as functional.
The test system of test [16] is Botrytis cinerea. In words: Protective antifungal activity against Botryotinia fuckeliana inoculated in fungicide-applied strawberry fruit assessed as disease severity measuring lesion diameter at 1 ug AI/ml applied 24 hr prior inoculation. Format: functional.
The subject of test [17] is Botrytis cinerea. In words: Protective antifungal activity against Botryotinia fuckeliana inoculated in fungicide-applied strawberry fruit assessed as disease control efficacy at 100 ug AI/ml applied 48 hr prior inoculation relative to control. It counts as functional.
Test [18] deals with Botrytis cinerea. The test can be described thus: Protective antifungal activity against Botryotinia fuckeliana inoculated in fungicide-applied strawberry fruit assessed as disease control efficacy at 1 ug AI/ml applied 48 hr prior inoculation relative to control. It counts as functional.
For test [19], the system named is Botrytis cinerea. The test can be described thus: Protective antifungal activity against Botryotinia fuckeliana inoculated in fungicide-applied strawberry fruit assessed as disease severity measuring lesion diameter at 50 ug AI/ml applied 48 hr prior inoculation. It counts as functional.
Test [20] has as its system Botrytis cinerea. In words: Protective antifungal activity against Botryotinia fuckeliana inoculated in fungicide-applied strawberry fruit assessed as disease severity measuring lesion diameter at 1 ug AI/ml applied 48 hr prior inoculation. It counts as functional.
Test [21] concerns Botrytis cinerea. In words: Curative antifungal activity against Botryotinia fuckeliana inoculated in strawberry fruit assessed as disease severity measuring lesion diameter at 1 ug AI/ml applied 48 hr post-inoculation. Format: functional.
Test [22] deals with Botrytis cinerea. The test can be described thus: Protective antifungal activity against Botryotinia fuckeliana inoculated in fungicide-applied strawberry fruit assessed as disease control efficacy at 100 ug AI/ml applied 24 hr prior inoculation relative to control. Format: functional.
The test system of test [23] is Botrytis cinerea. The test can be described thus: Protective antifungal activity against Botryotinia fuckeliana inoculated in fungicide-applied strawberry fruit assessed as disease control efficacy at 50 ug AI/ml applied 24 hr prior inoculation relative to control. Format: functional.

Each structure is given as a SMILES string. Calls of active or inactive are those of the source. The rule behind the calls is not given here.

Regarding `O=C(NCCc1ncc(C(F)(F)F)cc1Cl)c1ccccc1C(F)(F)F` [FLUOPYRAM], the Efficacy in the test with Botrytis cinerea [1] is reported as 53%; in the test on Botrytis cinerea [3], 82.9%; with Botrytis cinerea [4], 81.2%; with Botrytis cinerea [5] it was 63.3%; with Botrytis cinerea [7], 62.5%; in the test with Botrytis cinerea [8], 41.1%. For the same molecule, the Efficacy turned out to be 53.6% with Botrytis cinerea [12]; 95.9% with Botrytis cinerea [17]; 54.3% with Botrytis cinerea [18]; 100% with Botrytis cinerea [22]; 93.9% with Botrytis cinerea [23]. Besides, the Activity was determined as 3.9 mm in the test on Botrytis cinerea [2]; 3.9 mm with Botrytis cinerea [13]; 7 mm with Botrytis cinerea [14]; 10.3 mm in the test with Botrytis cinerea [15]; 6.3 mm in the test with Botrytis cinerea [16]; 2.3 mm in the test with Botrytis cinerea [19]. Further, the Activity with Botrytis cinerea [20] is 8.6 mm; in the test on Botrytis cinerea [21], 6.9 mm. In the test on Botrytis cinerea [6], the “growth inhibition (GI)” value was “inactive”. The “growth inhibition (GI)” value in the test on Botrytis cinerea [9], with Botrytis cinerea [10] and in the test with Botrytis cinerea [11] was “Active” each time.

The record behind these values is ChEMBL document CHEMBL3044799, “Biological activity of the succinate dehydrogenase inhibitor fluopyram against Botrytis cinerea and fungal baseline sensitivity” (Pest Manag Sci, 2012).
